Data published in patent US10696615B2, “Prenylated hydroxystilbenes” (The University of Sydney, priority 2011, dated 2020).

Experiments:
CCRF-CEM = assay: NCI in vitro cancer screen, Leukemia; type: cell-based, human
EKVX = assay: NCI in vitro cancer screen, Non-Small Cell Lung Cancer; type: cell-based, human
HOP-62 = assay: as above; type: cell-based, human; conditions: HOP-62
HOP-92 = assay: as above; type: cell-based, human; conditions: HOP-92
NCI-H226 = assay: as above; type: cell-based, human; conditions: NCI-H226
NCI-H23 = assay: as above; type: cell-based, human; conditions: NCI-H23
HCT-116 = assay: NCI in vitro cancer screen, Colon Cancer; type: cell-based, human; conditions: HCT-116
HT29 = assay: NCI in vitro cancer screen, Colon Cancer; type: cell-based, human; conditions: HT29
KM12 = assay: NCI in vitro cancer screen, Colon Cancer; type: cell-based, human; conditions: KM12
SW-620 = assay: NCI in vitro cancer screen, Colon Cancer; type: cell-based, human; conditions: SW-620
SF-268 = assay: NCI in vitro cancer screen, CNS Cancer; type: cell-based, human; conditions: SF-268
SF-539 = assay: NCI in vitro cancer screen, CNS Cancer; type: cell-based; conditions: SF-539
SNB-19 = assay: NCI in vitro cancer screen, CNS Cancer; type: cell-based, human; conditions: SNB-19
U251 = assay: NCI in vitro cancer screen, CNS Cancer; type: cell-based, human; conditions: U251
SK-MEL-28 = assay: NCI in vitro cancer screen, Melanoma; type: cell-based, human; conditions: SK-MEL-28
SK-MEL-5 = assay: NCI in vitro cancer screen, Melanoma; type: cell-based, human; conditions: SK-MEL-5
UACC-257 = assay: NCI in vitro cancer screen, Melanoma; type: cell-based, human; conditions: UACC-257
IGROV1 = assay: NCI in vitro cancer screen, Ovarian Cancer; type: cell-based, human; conditions: IGROV1
OVCAR-3 = assay: NCI in vitro cancer screen, Ovarian Cancer; type: cell-based, human; conditions: Homo sapiens, OVCAR-3
OVCAR-4 = assay: NCI in vitro cancer screen, Ovarian Cancer; type: cell-based, human; conditions: OVCAR-4
OVCAR-5 = assay: NCI in vitro cancer screen, Ovarian Cancer; type: cell-based, human; conditions: OVCAR-5
OVCAR-8 = assay: NCI in vitro cancer screen, Ovarian Cancer; type: cell-based, human; conditions: OVCAR-8
CAKI-1 = assay: NCI in vitro cancer screen, Renal Cancer; type: cell-based, human; conditions: CAKI-1
TK-10 = assay: NCI in vitro cancer screen, Renal Cancer; type: cell-based, human; conditions: TK-10
DU-145 = assay: NCI in vitro cancer screen, Prostate Cancer; type: cell-based, human; conditions: DU-145
MCF7 = assay: NCI in vitro cancer screen, Breast Cancer; type: cell-based, human; conditions: MCF7
HS 578T = assay: NCI in vitro cancer screen, Breast Cancer; type: cell-based, human; conditions: Homo sapiens
MDA-MB-468 = assay: NCI in vitro cancer screen, Breast Cancer; type: cell-based, human; conditions: MDA-MB-468
human tumor cell lines = assay: NCI in vitro cancer screen, whole panel (summary statements); type: cell-based
[1] = Homo sapiens, read-out: LC50 (the source's name)
[2] = read-out: LC50 (the source's name)

COc1cc(/C=C/c2cc(O)cc(OC)c2CC=C(C)C)ccc1O [USYDS1, (E)-2-(3-methyl-2-buten-1-yl)-4′,5-dihydroxy-3,3′-dimethoxystilbene]
TGI (CCRF-CEM): 24.6 µM
GI50 (CCRF-CEM; Homo sapiens): 0.35 µM
CC50 (CCRF-CEM; [1]): > 100 µM
TGI (EKVX): 24.3 µM
GI50 (EKVX; Homo sapiens): 10.8 µM
CC50 (EKVX; [1]): 54.4 µM
TGI (HOP-62): 16.0 µM
GI50 (HOP-62; Homo sapiens): 0.44 µM
CC50 (HOP-62; [1]): 42.2 µM
TGI (HOP-92): 12.3 µM
GI50 (HOP-92; Homo sapiens): 0.06 µM
CC50 (HOP-92; [1]): 39.6 µM
GI50 (NCI-H226; Homo sapiens): 3.13 µM
LC50 (50% lethal concentration) (NCI-H226; Homo sapiens): 45.6 µM
TGI (NCI-H226): 13.3 µM
GI50 (NCI-H23; Homo sapiens): 0.28 µM
LC50 (NCI-H23; Homo sapiens): 62.5 µM
TGI (NCI-H23): 15.1 µM
TGI (HCT-116): 11.1 µM
GI50 (HCT-116; Homo sapiens): 0.3 µM
LC50 (concentration killing 50% of cells) (HCT-116; Homo sapiens): 40.4 µM
TGI (HT29): 15.3 µM
GI50 (HT29; Homo sapiens, HT-29): 4.73 µM
CC50 (HT29; Homo sapiens, HT-29, read-out: LC50 (the source's name)): 44.4 µM
GI50 (KM12; Homo sapiens): 0.32 µM
CC50 (KM12; [1]): 46.7 µM
TGI (KM12): 13.9 µM
GI50 (SW-620; Homo sapiens): 0.04 µM
CC50 (SW-620; [1]): 44.3 µM
TGI (SW-620): 15.1 µM
GI50 (SF-268; Homo sapiens): 0.25 µM
CC50 (SF-268; [1]): 50.2 µM
TGI (SF-268): 14.1 µM
GI50 (SF-539; Homo sapiens): 0.04 µM
CC50 (SF-539; [1]): 48.6 µM
TGI (SF-539): 14.4 µM
GI50 (SNB-19; Homo sapiens): 0.17 µM
CC50 (SNB-19; [1]): 51.5 µM
TGI (SNB-19): 19.3 µM
GI50 (U251; Homo sapiens, U-251): 0.37 µM
CC50 (U251; Homo sapiens, U-251, read-out: LC50 (the source's name)): 36 µM
TGI (U251): 10.9 µM
GI50 (SK-MEL-28; Homo sapiens): 10.9 µM
LC50 (SK-MEL-28; Homo sapiens): 51.7 µM
TGI (SK-MEL-28): 23.8 µM
GI50 (SK-MEL-5; Homo sapiens): 0.05 µM
CC50 (SK-MEL-5; [1]): 5.99 µM
TGI (SK-MEL-5): 0.75 µM
GI50 (UACC-257; Homo sapiens): 2.53 µM
CC50 (UACC-257; [1]): 45.4 µM
TGI (UACC-257): 17.7 µM
GI50 (IGROV1; Homo sapiens, IGROV-1): 2.65 µM
CC50 (IGROV1; Homo sapiens, IGROV-1, read-out: LC50 (the source's name)): > 100 µM
TGI (IGROV1): 27.9 µM
GI50 (OVCAR-3): 0.26 µM
CC50 (OVCAR-3; [2]): 37.3 µM
GI50 (OVCAR-4; Homo sapiens): 0.58 µM
CC50 (OVCAR-4; [1]): 52 µM
TGI (OVCAR-4): 18.4 µM
GI50 (OVCAR-5; Homo sapiens): 6 µM
CC50 (OVCAR-5; [1]): 55.3 µM
TGI (OVCAR-5): 21.4 µM
GI50 (OVCAR-8; Homo sapiens): 0.08 µM
CC50 (OVCAR-8; [1]): 50 µM
TGI (OVCAR-8): 11.7 µM
TGI (CAKI-1): 39.3 µM
GI50 (CAKI-1; Homo sapiens): 4.77 µM
CC50 (CAKI-1; [1]): > 100 µM
GI50 (TK-10; Homo sapiens): 4.1 µM
LC50 (TK-10; Homo sapiens): 40.5 µM
TGI (TK-10): 15.7 µM
TGI (DU-145): 12.7 µM
GI50 (DU-145; Homo sapiens): 0.06 µM
CC50 (DU-145; [1]): 38.6 µM
GI50 (MCF7; Homo sapiens): 0.23 µM
CC50 (MCF7; [1]): 52.9 µM
TGI (MCF7): 13.0 µM
GI50 (HS 578T): 0.02 µM
CC50 (HS 578T; [2]): > 100 µM
GI50 (MDA-MB-468; Homo sapiens): 0.36 µM
CC50 (MDA-MB-468; [1]): 33.2 µM
TGI (MDA-MB-468): 8.37 µM
GI50 (human tumor cell lines; Homo sapiens, range over almost all types of tumor cells): 0.02 to 5 µM
fold more potent than piceatannol (human tumor cell lines; inhibition of proliferation of almost all types of tumor cells): approximately 250 fold
order of potency in the inhibition of cancerous cell growth (human tumor cell lines; result in words): most potent activity
